The structures appear in SMILES notation. The source made the active and inactive calls. The rule behind the calls is not given here.

Holding throughout (assay type): functional, organism-based
Assay [1] has as its system Plasmodium cynomolgi. Briefly: Antimalarial activity against sporozoite form of Plasmodium cynomolgi infected in juvenile rhesus monkey assessed as radical curative effect.
Another assay has as its system Leishmania donovani. Briefly: Antileishmanial activity against Leishmania donovani infected in golden hamster administered for 8 days.
A further assay relates to Plasmodium berghei. Briefly: Antimalarial activity against Plasmodium berghei infected in mouse assessed as increase in mean survival time at 640 mg/kg, sc. Also noted: dose 640 mg/kg.
For assay [2], the system named is Plasmodium cynomolgi. Briefly: Antimalarial activity against sporozoite form of Plasmodium cynomolgi infected in juvenile rhesus monkey assessed as radical curative effect at 10 mg/kg, administered 6 doses. Further details: dose 10 mg/kg.

With `COc1cc(NC(C)CCCN)c2ncccc2c1` (configuration not stated), the result in the assay with Plasmodium cynomolgi [1] was Active.

On to `CCN(CC)CCCC(C)Nc1ccc(OC)c2ncccc12` (configuration not stated), for which the result in the assay on Leishmania donovani, with Plasmodium cynomolgi [1] and with Plasmodium berghei was inactive.

As for `CCN(CC)CCNc1ccc(OC)c2ncccc12`, the result with Leishmania donovani, with Plasmodium cynomolgi [1] and in the assay on Plasmodium berghei was inactive.

Consider `COc1ccc2ncc(NC(C)CCCN)c(C)c2c1` (configuration not stated), for which the result with Leishmania donovani and in the assay with Plasmodium berghei was inactive.

Turning to `COc1cc2cc(NC(C)CCCN)cnc2cc1OC` (configuration not stated), the outcome in the assay with Leishmania donovani and with Plasmodium berghei was inactive.

As to `COc1cc2ncc(NC(C)CCCN)c(C)c2cc1OC` (configuration not stated), the result in the assay with Leishmania donovani and in the assay with Plasmodium berghei was inactive.

On to `COc1ccc(NC(C)CCCN)c2cccnc12` (configuration not stated), for which, in the assay with Plasmodium cynomolgi [2], the result was Active. The result in the assay on Leishmania donovani and with Plasmodium berghei was inactive.

In the case of `COc1cc(NC(C)CCCN)c2nccc(C)c2c1` (configuration not stated), the result in the assay with Plasmodium cynomolgi [1] was Active.
